From the NIST ThermoML archive (doi:10.1016/j.jct.2009.02.008)
“And” between values parts separate entries of the source, which are not always exact repeats. Identical values can stand only once.

Columns and labels:
[1] = Molar enthalpy of transition or fusion; conditions: Crystal; DSC
[2] = for vapor or sublimation pressure: Torsion effusion method; for Normal melting temperature: DTA

O=C(O)c1ccc([N+](=O)[O-])cc1[N+](=O)[O-] [2,4-dinitrobenzoic acid]
Conditions | Molar enthalpy of transition or fusion [kcal/mol]
[1] | 7.31

[2]
Conditions | vapor or sublimation pressure
363.5 K, Crystal | 3e-05 kPa
370 K, Crystal | 6e-05 kPa
373 K, Crystal | 9e-05 kPa
375 K, Crystal | 0.000105 kPa
377 K, Crystal | 0.00015 kPa
377.5 K, Crystal | 0.00015 kPa
379 K, Crystal | 0.000195 kPa
381 K, Crystal | 0.00024 kPa
381.5 K, Crystal | 0.00024 kPa
385 K, Crystal | 0.00033 kPa
388.5 K, Crystal | 0.000511 kPa and 0.000541 kPa
389 K, Crystal | 0.00048 kPa and 0.000541 kPa
391 K, Crystal | 0.000601 kPa and 0.000631 kPa and 0.000691 kPa
393 K, Crystal | 0.000781 kPa
393.5 K, Crystal | 0.000901 kPa
394 K, Crystal | 0.000871 kPa
396.5 K, Crystal | 0.001141 kPa
397 K, Crystal | 0.001141 kPa
399 K, Crystal | 0.001351 kPa and 0.001502 kPa
399.5 K, Crystal | 0.001622 kPa
400 K, Crystal | 0.001622 kPa
401.5 K, Crystal | 0.001952 kPa
402 K, Crystal | 0.001862 kPa
402.5 K, Crystal | 0.001922 kPa
494.3 K, Liquid | 0.85 kPa
494.4 K, Liquid | 0.85 kPa
494.5 K, Liquid | 0.851 kPa
494.7 K, Liquid | 0.85 kPa
495.6 K, Liquid | 0.874 kPa
495.7 K, Liquid | 0.883 kPa
495.8 K, Liquid | 0.879 kPa
495.9 K, Liquid | 0.884 kPa
500.6 K, Liquid | 1.05 kPa and 1.065 kPa
500.8 K, Liquid | 1.051 kPa and 1.058 kPa
501.1 K, Liquid | 1.047 kPa
501.2 K, Liquid | 1.016 kPa and 1.046 kPa and 1.048 kPa
501.5 K, Liquid | 1.06 kPa
502.4 K, Liquid | 1.13 kPa
503.2 K, Liquid | 1.259 kPa
504.4 K, Liquid | 1.202 kPa
505.3 K, Liquid | 1.309 kPa
506.2 K, Liquid | 1.299 kPa
507.1 K, Liquid | 1.451 kPa
507.2 K, Liquid | 1.464 kPa
507.4 K, Liquid | 1.458 kPa
507.5 K, Liquid | 1.475 kPa
508.1 K, Liquid | 1.511 kPa
508.2 K, Liquid | 1.484 kPa and 1.513 kPa
508.3 K, Liquid | 1.516 kPa
508.5 K, Liquid | 1.513 kPa
510.3 K, Liquid | 1.607 kPa
511.4 K, Liquid | 1.647 kPa
511.5 K, Liquid | 1.909 kPa
512.3 K, Liquid | 1.785 kPa
512.8 K, Liquid | 1.798 kPa and 1.814 kPa and 1.816 kPa
512.9 K, Liquid | 1.849 kPa [middle of 4 runs]
513 K, Liquid | 1.814 kPa
513.2 K, Liquid | 1.704 kPa
514.4 K, Liquid | 1.9 kPa
515.2 K, Liquid | 1.995 kPa
516.4 K, Liquid | 1.952 kPa
517.2 K, Liquid | 2.293 kPa and 2.389 kPa and 2.212 kPa
517.3 K, Liquid | 2.207 kPa and 2.212 kPa
518.4 K, Liquid | 2.196 kPa
519.3 K, Liquid | 2.153 kPa
520.2 K, Liquid | 2.466 kPa
521.4 K, Liquid | 2.522 kPa
522.3 K, Liquid | 2.494 kPa
523 K, Liquid | 2.741 kPa
523.1 K, Liquid | 2.703 kPa and 2.754 kPa
523.2 K, Liquid | 2.768 kPa
523.3 K, Liquid | 2.731 kPa
524.3 K, Liquid | 2.997 kPa
526.3 K, Liquid | 3.049 kPa
527.2 K, Liquid | 3.107 kPa
528.4 K, Liquid | 3.467 kPa
528.9 K, Liquid | 3.528 kPa and 3.623 kPa and 3.453 kPa
529 K, Liquid | 3.447 kPa
529.2 K, Liquid | 3.297 kPa
530.4 K, Liquid | 3.895 kPa
531.2 K, Liquid | 3.694 kPa
531.3 K, Liquid | 3.86 kPa and 3.894 kPa
531.4 K, Liquid | 3.865 kPa
531.5 K, Liquid | 3.847 kPa
532.2 K, Liquid | 3.786 kPa
533.4 K, Liquid | 4.205 kPa
534.2 K, Liquid | 4.308 kPa and 3.936 kPa and 4.141 kPa
534.4 K, Liquid | 4.173 kPa and 4.085 kPa
535.4 K, Liquid | 4.593 kPa
536.3 K, Liquid | 4.615 kPa
537.3 K, Liquid | 4.715 kPa and 4.48 kPa
537.4 K, Liquid | 4.808 kPa and 4.815 kPa
537.5 K, Liquid | 4.648 kPa
538.2 K, Liquid | 4.909 kPa
539.2 K, Liquid | 5.258 kPa and 5.485 kPa and 5.433 kPa
539.3 K, Liquid | 5.693 kPa
539.4 K, Liquid | 4.999 kPa
540.3 K, Liquid | 5.053 kPa
541.2 K, Liquid | 5.592 kPa
543.3 K, Liquid | 5.789 kPa
544.2 K, Liquid | 5.62 kPa

Conditions | Normal melting temperature [°C]
[2], Crystal | 182.7

O=C(O)c1ccc([N+](=O)[O-])c([N+](=O)[O-])c1 [3,4-dinitrobenzoic acid]
Conditions | Molar enthalpy of transition or fusion [kcal/mol]
[1] | 5.88

[2]
Conditions | vapor or sublimation pressure
366 K, Crystal | 6e-05 kPa
367 K, Crystal | 7.5e-05 kPa
368 K, Crystal | 7.5e-05 kPa
369 K, Crystal | 9e-05 kPa
370 K, Crystal | 0.000105 kPa
370.5 K, Crystal | 0.000105 kPa
373 K, Crystal | 0.00015 kPa
373.5 K, Crystal | 0.00015 kPa
374 K, Crystal | 0.00015 kPa
374.5 K, Crystal | 0.00015 kPa
376 K, Crystal | 0.00018 kPa
378 K, Crystal | 0.00024 kPa
379 K, Crystal | 0.00027 kPa
380 K, Crystal | 0.00027 kPa
382 K, Crystal | 0.00039 kPa and 0.00036 kPa
383 K, Crystal | 0.00039 kPa
383.5 K, Crystal | 0.00039 kPa
384.5 K, Crystal | 0.00048 kPa
385 K, Crystal | 0.000511 kPa
386.5 K, Crystal | 0.000541 kPa
387 K, Crystal | 0.000571 kPa
387.5 K, Crystal | 0.000631 kPa
390.5 K, Crystal | 0.000841 kPa
391.5 K, Crystal | 0.000901 kPa
392 K, Crystal | 0.000991 kPa
393 K, Crystal | 0.001171 kPa
393.5 K, Crystal | 0.001111 kPa
396 K, Crystal | 0.001502 kPa and 0.001441 kPa
396.5 K, Crystal | 0.001622 kPa
397 K, Crystal | 0.001652 kPa
398.5 K, Crystal | 0.001862 kPa
399.3 K, Crystal | 0.001952 kPa
504.2 K, Liquid | 1.398 kPa
506.3 K, Liquid | 1.467 kPa and 1.527 kPa
508.1 K, Liquid | 1.661 kPa
509.3 K, Liquid | 1.686 kPa and 1.713 kPa
510.3 K, Liquid | 1.855 kPa
511.2 K, Liquid | 1.855 kPa
512.2 K, Liquid | 2.062 kPa and 1.928 kPa
512.6 K, Liquid | 2.021 kPa
513.3 K, Liquid | 2.078 kPa
514 K, Liquid | 2.144 kPa
514.2 K, Liquid | 2.189 kPa
514.5 K, Liquid | 2.164 kPa
515.2 K, Liquid | 2.237 kPa
516.3 K, Liquid | 2.326 kPa and 2.215 kPa
517.3 K, Liquid | 2.424 kPa
517.4 K, Liquid | 2.494 kPa
517.5 K, Liquid | 2.396 kPa
518.2 K, Liquid | 2.524 kPa and 2.484 kPa
518.3 K, Liquid | 2.448 kPa
519.1 K, Liquid | 2.585 kPa
519.3 K, Liquid | 2.646 kPa
519.5 K, Liquid | 2.554 kPa
520 K, Liquid | 2.619 kPa
520.2 K, Liquid | 2.672 kPa and 2.772 kPa and 2.726 kPa
521.2 K, Liquid | 2.916 kPa
521.3 K, Liquid | 2.807 kPa
521.7 K, Liquid | 2.815 kPa
522.1 K, Liquid | 2.909 kPa and 2.971 kPa
522.2 K, Liquid | 2.978 kPa
523.1 K, Liquid | 3.104 kPa
523.3 K, Liquid | 3.095 kPa and 3.121 kPa
523.5 K, Liquid | 3.122 kPa
524.1 K, Liquid | 3.125 kPa
524.2 K, Liquid | 3.059 kPa and 3.181 kPa
524.4 K, Liquid | 3.199 kPa
525 K, Liquid | 3.353 kPa
525.2 K, Liquid | 3.39 kPa
525.5 K, Liquid | 3.335 kPa
526 K, Liquid | 3.494 kPa
526.3 K, Liquid | 3.406 kPa and 3.328 kPa and 3.288 kPa
526.5 K, Liquid | 3.316 kPa
527.1 K, Liquid | 3.585 kPa
527.3 K, Liquid | 3.551 kPa and 3.644 kPa
528.1 K, Liquid | 3.726 kPa and 3.627 kPa
528.2 K, Liquid | 3.635 kPa
528.3 K, Liquid | 3.831 kPa
529.2 K, Liquid | 3.887 kPa
529.4 K, Liquid | 3.764 kPa
529.6 K, Liquid | 3.879 kPa and 3.918 kPa
530.1 K, Liquid | 3.984 kPa
530.3 K, Liquid | 4.036 kPa and 4.045 kPa
531 K, Liquid | 4.159 kPa
531.3 K, Liquid | 4.262 kPa and 4.216 kPa
532.2 K, Liquid | 4.348 kPa [middle of 4 runs]
533.2 K, Liquid | 4.481 kPa
533.3 K, Liquid | 4.576 kPa and 4.47 kPa
534.3 K, Liquid | 4.611 kPa and 4.532 kPa
535.4 K, Liquid | 4.812 kPa
535.7 K, Liquid | 4.867 kPa
536.2 K, Liquid | 4.889 kPa
536.5 K, Liquid | 4.992 kPa
537.3 K, Liquid | 5.217 kPa
538.3 K, Liquid | 5.356 kPa
539.3 K, Liquid | 5.685 kPa
540.6 K, Liquid | 5.862 kPa

Conditions | Normal melting temperature [°C]
[2], Crystal | 165.1
